Results: US4061649A, “Clavulanic acid sulphates” (Beecham Group Limited, priority 1975, dated 1977)
Where a name gives a salt, the structure may show the parent alone.

Assays:
Staphylococcus aureus = assay: MIC / synergism, microtitre method (Example 42); format: cell-based
[1] = system: Staphylococcus aureus(Russell); assay: MIC / synergism, microtitre method (Example 42); format: cell-based
[2] = system: strains of Klebsiella aerogenes A; assay: growth inhibition, penicillins with and without clavulanic acid or ester; format: cell-based
[3] = system: strains of Staphylococcus aureus; assay: growth inhibition; format: cell-based
[4] = system: β-lactamase producing strains of Escherichia coli, Klebsiella aerognes and Staphylococcus aureus; assay: synergism with ampicillin; format: cell-based
[5] = system: β-lactamase producing strains of Proteus mirabilis and Staphylococcus aureus; assay: synergism with cephaloridine; format: cell-based
[6] = biological target: T1, Escherischia coli JT4 β-lactamase (Escherichia coli, UniProt P62593); assay: β-lactamase I50, method of Belgian Pat. No. 827926; format: biochemical
T1 construct: host or cells: Escherichia coli JT4
T1 sequence (P62593 24-286 limits assumed): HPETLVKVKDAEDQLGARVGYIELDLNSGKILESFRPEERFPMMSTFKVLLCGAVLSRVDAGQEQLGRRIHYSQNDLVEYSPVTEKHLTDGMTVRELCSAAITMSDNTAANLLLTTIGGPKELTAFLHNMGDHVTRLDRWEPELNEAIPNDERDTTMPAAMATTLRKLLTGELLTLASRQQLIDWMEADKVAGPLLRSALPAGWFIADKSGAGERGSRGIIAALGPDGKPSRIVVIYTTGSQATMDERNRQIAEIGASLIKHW
Procedure: (§1) The I50 in μg/ml of this compound against several β-lactamaseswas determined using the method described in Belgian Pat. No. 827926 and the results are as follows: […]

[7] = biological target: T2, Pseudomonas Dalgleish β-lactamase (Pseudomonas aeruginosa, UniProt P16897); assay: β-lactamase I50, method of Belgian Pat. No. 827926; format: biochemical
T2 construct: host or cells: Pseudomonas (aeruginosa) Dalgleish
T2 sequence (P16897 18-288): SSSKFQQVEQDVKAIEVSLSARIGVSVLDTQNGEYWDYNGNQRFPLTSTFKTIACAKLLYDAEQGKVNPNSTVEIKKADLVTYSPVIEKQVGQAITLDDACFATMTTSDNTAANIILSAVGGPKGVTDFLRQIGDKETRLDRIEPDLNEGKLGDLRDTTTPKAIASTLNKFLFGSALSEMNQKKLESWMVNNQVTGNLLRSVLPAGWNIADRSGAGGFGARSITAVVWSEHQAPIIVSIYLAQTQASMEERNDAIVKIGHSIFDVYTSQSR
Procedure: as §1

Escherichia coli B 11 = assay: MIC / synergism, microtitre method (Example 42); format: cell-based; conditions: compound alone; inoculum 0.5 × 10^-2
Enterobacter cloacae [8] = assay: MIC / synergism, microtitre method (Example 42); format: cell-based; conditions: compound alone; inoculum 0.5 × 10^-2
bacteria = assay: tests for antibacterial activity in broth (Example 32); format: cell-based; conditions: possibly due to clavulanic acid liberated by slow hydrolysis
[9] = blood and tissue levels in female mice; format: in vivo; conditions: oral administration of 100 mg/kg
Bacillus subtilis A = assay: MIC, method of Example 30 with 1/100 dilution of overnight broth (Example 46); conditions: heavy inocula (1/100 of overnight broth); no unit in table (Example 30: μg/ml)
Procedure: (§2) The cultures were incubated overnight and the points of bacterial growth recorded next morning by observing the turbidity of the culture.

Shigella sonnei = assay: MIC, microtitre method (Example 30); conditions: approximate MIC; inoculum final dilution 0.5 × 10^-4
Procedure: as §2

Bacillus subtilis = assay: MIC, microtitre method (Example 30); conditions: approximate MIC; inoculum final dilution 0.5 × 10^-4
Procedure: as §2

Staph.aureus Russell = assay: MIC, method of Example 30 with 1/100 dilution of overnight broth (Example 46); conditions: heavy inocula (1/100 of overnight broth); no unit in table (Example 30: μg/ml)
Procedure: as §2

Klebsiella aerogenes = assay: MIC, microtitre method (Example 30); conditions: approximate MIC; inoculum final dilution 0.5 × 10^-4
Procedure: as §2

Klebsiella oxytocum = assay: MIC, microtitre method (Example 30); conditions: approximate MIC; inoculum final dilution 0.5 × 10^-4
Procedure: as §2

Serratia marcescens [10] = assay: MIC / synergism, microtitre method (Example 42); format: cell-based; conditions: compound alone; inoculum 0.5 × 10^-2
[11] = system: Enterobacter aerogenes T 624; assay: MIC, microtitre method (Example 30); conditions: approximate MIC; inoculum final dilution 0.5 × 10^-4
Procedure: as §2

Salmonella typhimurium = assay: MIC, microtitre method (Example 30); conditions: approximate MIC; inoculum final dilution 0.5 × 10^-4
Procedure: as §2

[12] = system: Escherichia coli NCTC 10418; assay: MIC, microtitre method (Example 30); conditions: approximate MIC; inoculum final dilution 0.5 × 10^-4
Procedure: as §2

[13] = system: Streptococcus pyogenes CN 10; assay: MIC, microtitre method (Example 30); conditions: approximate MIC; inoculum final dilution 0.5 × 10^-4
Procedure: as §2

Staph.aureus Oxford = assay: MIC, method of Example 30 with 1/100 dilution of overnight broth (Example 46); conditions: heavy inocula (1/100 of overnight broth); no unit in table (Example 30: μg/ml)
Procedure: as §2

Proteus mirabilis 899 = format: cell-based
Proteus vulgaris W090 = assay: MIC, microtitre method (Example 30); conditions: approximate MIC; inoculum final dilution 0.5 × 10^-4
Procedure: as §2

Pseudomonas aeruginosa A = assay: MIC, microtitre method (Example 30); conditions: approximate MIC; inoculum final dilution 0.5 × 10^-4
Procedure: as §2

Acinetobacter anitratus = assay: MIC, microtitre method (Example 30); conditions: approximate MIC; inoculum final dilution 0.5 × 10^-4
Procedure: as §2

Providentia stuartii = assay: MIC, microtitre method (Example 30); conditions: approximate MIC; inoculum final dilution 0.5 × 10^-4
Procedure: as §2

Streptococcus faecalis = assay: MIC, microtitre method (Example 30); conditions: approximate MIC; inoculum final dilution 0.5 × 10^-4
Procedure: as §2

Proteus mirabilis 0977 = assay: MIC, microtitre method (Example 30); conditions: approximate MIC; inoculum final dilution 0.5 × 10^-4
Procedure: as §2

Enterobacter cloacae [14] = assay: MIC, microtitre method (Example 30); conditions: approximate MIC; inoculum final dilution 0.5 × 10^-4
Procedure: as §2

Serratia marcescens [15] = assay: MIC, microtitre method (Example 30); conditions: approximate MIC; inoculum final dilution 0.5 × 10^-4
Procedure: as §2

[16] = in presence of 5μg/ml clavulanic acid sodium salt

O=C(Cc1cccs1)N[C@@H]1C(=O)N2C(C(=O)[O-])=C(C[n+]3ccccc3)CS[C@H]12 [Cephaloridine, cephaloridine]
Minimum Inhibitory Concentrations (Staphylococcus aureus; [16]): 3.7 µg/mL | Minimum Inhibitory Concentrations [1, 16]: > 0.03 µg/mL | Minimum Inhibitory Concentrations ([1]; synergist (clavulanic acid sodium salt) added at 1 μg/ml. instead of 5 μg/ml., compared with the value at 5 μg/ml): Same value

O=C(O)[C@H]1/C(=C/CO)O[C@@H]2CC(=O)N21 [clavulanic acid, Z-(2R,5R)-3-(β-hydroxyethylidene)-7-oxo-4-oxa-1-azabicyclo[3,2,0]heptane-2-carboxylic acid]
MIC ([2]; Klebsiella aerogenes, compound alone, read-out: concentration by which growth is not inhibited): > 10 µg/mL | inhibition of growth [3]: able to inhibit the growth | synergism of the antibacterial effect of ampicillin [4]: able to synergyze the antibacterial effect of ampicillin | synergism of the antibacterial effect of cephaloridine [5]: able to synergyze the antibacterial effect of cephaloridine

O=C(OCc1ccccc1)[C@H]1/C(=C/COS(=O)(=O)O)O[C@@H]2CC(=O)N21 [Example 50, Benzyl Clavulanate -- O -- sulphonate trimethylamine salt]
IC50 [6]: 9.21 µM | IC50 [7]: 11.4 µM

CC1(C)S[C@@H]2[C@H](NC(=O)[C@H](N)c3ccccc3)C(=O)N2[C@H]1C(=O)O [Ampicillin, ampicillin, reference compound]
Minimum Inhibitory Concentrations (Escherichia coli B 11): > 500 µg/mL | Minimum Inhibitory Concentrations (Enterobacter cloacae [8]): 250 µg/mL

COC(=O)[C@H]1/C(=C/CO)O[C@@H]2CC(=O)N21 [clavulanic acid methyl ester]
antibacterial activity in broth (bacteria): broad spectrum activity but of a lower order than shown by clavulanic acid

CC1(C)S[C@@H]2[C@H](NC(=O)Cc3ccccc3)C(=O)N2[C@H]1C(=O)O [Benzylpenicillin, benzylpenicillin, reference compound]
concentration by which growth is inhibited ([2]; when 5 μg/ml. of clavulanic acid is also present): less than 12.5 μg/ml

O=C(O)[C@H]1/C(=C/CO)O[C@@H]2CC(=O)N21 [clavulanic acid sodium salt, 3-(β-hydroxyethylidine)-7-oxo-4-oxa-1-azabicyclo [3,2,0]heptane-2-carboxylic acid sodium salt]
levels of clavulanic acid [9]: useful levels | MIC (Bacillus subtilis A): 62 | Minimum Inhibitory Concentration (Shigella sonnei): 62 µg/mL | Minimum Inhibitory Concentration (Bacillus subtilis): 62 µg/mL | MIC (Staph.aureus Russell): 15 | Minimum Inhibitory Concentration (Klebsiella aerogenes): 31 to 62 µg/mL | Minimum Inhibitory Concentration (Klebsiella oxytocum): 62 µg/mL | Minimum Inhibitory Concentrations (Serratia marcescens [10]): 125 µg/mL | Minimum Inhibitory Concentration [11]: 31 µg/mL | Minimum Inhibitory Concentration (Salmonella typhimurium): 31 µg/mL | Minimum Inhibitory Concentration [12]: 31 µg/mL | Minimum Inhibitory Concentration [13]: 125 µg/mL | MIC (Staph.aureus Oxford): 15 | Minimum Inhibitory Concentrations (Proteus mirabilis 899): < 500 µg/mL | Minimum Inhibitory Concentrations (Enterobacter cloacae [8]): 62 µg/mL | Minimum Inhibitory Concentration (Proteus vulgaris W090): 31 µg/mL | Minimum Inhibitory Concentration (Pseudomonas aeruginosa A): 500 µg/mL | Minimum Inhibitory Concentration (Acinetobacter anitratus): 125 µg/mL | Minimum Inhibitory Concentration (Providentia stuartii): 125 µg/mL | Minimum Inhibitory Concentrations (Staphylococcus aureus; compound alone, inoculum 0.5 × 10^-2): 62 µg/mL | Minimum Inhibitory Concentration (Streptococcus faecalis): > 500 µg/mL | Minimum Inhibitory Concentration (Proteus mirabilis 0977): 62 µg/mL | Minimum Inhibitory Concentration (Enterobacter cloacae [14]): 62 µg/mL | Minimum Inhibitory Concentration (Serratia marcescens [15]): 125 µg/mL
